What was measured:
[1] = tested on: larvae of the mustard beetle (Phaedon cochleariae); assay: Phaedon test (PHAECO spray treatment), Use Example 6, comparison with prior art; type: in vivo; settings: 168 h, 7 d
Description: (§1) Phaedon Test (PHAECO Spray Treatment)
Solvent: 78.0 parts by weight of acetone
1.5 parts by weight of dimethylformamide
(§2) Emulsifier: 0.5 part by weight of alkylaryl polyglycol ether
To produce an appropriate active ingredient formulation, 1 part by weight of active ingredient is mixed with the stated amounts of solvent and emulsifier, and the concentrate is diluted with emulsifier-containing water to the desired concentration. Leaf discs of Chinese cabbage (Brassica pekinensis) are sprayed with an active ingredient formulation of the desired concentration and, after drying, populated with larvae of the mustard beetle (Phaedon cochleariae).
After the desired period of time, the effect in % is determined. 100% means that all beetle larvae have been killed; 0% means that no beetle larvae have been killed.

[2] = log P determination by HPLC on reversed-phase columns (C 18), acidic range; type: physicochemical; settings: for chromatographic logP: pH 2.7, LOGP (HCOOH)
Description: The log P values reported in the table above and in the Preparation Examples were determined in accordance with EEC Directive 79/831 Annex V.A8 by HPLC (High Performance Liquid Chromatography) on reversed-phase columns (C 18), with the following methods:
The LC-MS determination in the acidic range is effected at pH 2.7 using 0.1% aqueous formic acid and acetonitrile (contains 0.1% formic acid) as eluents, linear gradient from 10% acetonitrile to 95% acetonitrile
The calibration was effected with unbranched alkan-2-ones (having 3 to 16 carbon atoms) with known log P values (log P values determined on the basis of the retention times by linear interpolation between two successive alkanones).

[3] = tested on: green peach aphid (Myzus persicae); assay: Myzus test (MYZUPE spray treatment); type: in vivo; settings: in Brassica rapa, foliar, 144 h, read-out: efficacy in % (aphids killed)
Description: Myzus Test (MYZUPE Spray Treatment)
Solvent: 78 parts by weight of acetone 1.5 parts by weight of dimethylformamide
as §2
(§3) To produce an appropriate active ingredient formulation, 1 part by weight of active ingredient is mixed with the stated amounts of solvent and emulsifier, and the concentrate is diluted with emulsifier-containing water to the desired concentration.
Leaf discs of Chinese cabbage (Brassica pekinensis) infested by all stages of the green peach aphid (Myzus persicae) are sprayed with an active ingredient formulation of the desired concentration.
After 6 days, the efficacy in % is determined 100% means that all aphids have been killed; 0% means that no aphids have been killed.

[4] = tested on: caterpillars of the armyworm (Spodoptera frugiperda); assay: Spodoptera frugiperda test (SPODFR spray treatment); type: in vivo; settings: for pest or weed control at 100 g/ha: Spodoptera frugiperda, in Zea mays, foliar, 168 h, read-out: efficacy in % (caterpillars killed)
Description: Spodoptera frugiperda Test (SPODFR Spray Treatment)
(§4) Solvent: 78.0 parts by weight of acetone 1.5 parts by weight of dimethylformamide
as §2, §3
Leaf discs of maize (Zea mays) are sprayed with an active ingredient formulation of the desired concentration and, after drying, populated with caterpillars of the armyworm (Spodoptera frugiperda).
After 7 days, the efficacy in % is determined 100% means that all caterpillars have been killed; 0% means that no caterpillars have been killed.

[5] = tested on: Lucilia cuprina 1st instar larvae; assay: Lucilia cuprina test (LUCICU); type: in vivo; settings: 100 ppm, treated horsemeat, after 48 h
Description: Lucilia cuprina Test (LUCICU)
Species: Lucilia cuprina 1st larval stage (age: 24 hours)
(§5) Solvent: dimethyl sulphoxide
(§6) To prepare an appropriate active ingredient formulation, 10 mg of active ingredient are mixed with 0.5 ml of dimethyl sulphoxide and the concentrate is diluted with water to the desired concentration.
Vessels containing 1 cm^3 of horsemeat which had been treated with the active ingredient formulation are populated with about 20 Lucilia cuprina 1st instar larvae.
After 48 h, the kill in % is determined 100% means that all larvae have been killed; 0% means that no larvae have been killed.

adult Musca domestica = assay: Musca domestica test (MUSCDO); type: in vivo; settings: 100 ppm, treated sponge, after 2 days
Description: Musca domestica Test (MUSCDO)
as §5, §6
Vessels containing a sponge treated with the active ingredient preparation of the desired concentration are populated with 10 adult Musca domestica.
After 2 days, the kill in % is determined 100% means that all flies have been killed; 0% means that no flies have been killed.

[6] = tested on: larvae of the mustard beetle (Phaedon cochleariae); assay: Phaedon test (PHAECO spray treatment), Use Example 2; type: in vivo; settings: in Brassica rapa, foliar, 168 h, read-out: efficacy in % (beetle larvae killed)
Description: as §1, §4, §2, §3
Leaf discs of Chinese cabbage (Brassica pekinensis) are sprayed with an active ingredient formulation of the desired concentration and, after drying, populated with larvae of the mustard beetle (Phaedon cochleariae).
After 7 days, the efficacy in % is determined 100% means that all beetle larvae have been killed; 0% means that no beetle larvae have been killed.

Compound	larval mortality at 20 g/ha [1]	LOGP (HCOOH) ([2]; pH 2.7)	pest or weed control at 100 g/ha [3]	pest or weed control at 100 g/ha [4]	kill in % (larvae killed) [5]	kill in % (flies killed) (adult Musca domestica)	chromatographic logP [2]	pest or weed control at 100 g/ha [6]	efficacy in % (caterpillars killed) ([4]; 100 g/ha, spray on maize leaf discs, after 7 days)
CNC(=O)c1cc(C)cc(C)c1NC(=O)c1cc(Cn2nnc(C(F)(F)F)n2)nn1-c1ncccc1Cl [Comparative Example, reference compound]	0%								
CC(=O)c1cc(C)c(NC(=O)c2cc(Cn3nnc(C(F)(F)F)n3)nn2-c2ncccc2Cl)c(C(=O)NC(C)(C)C)c1 [Compound 1]		3.26	100%	100%	100%	100%			
CNC(=O)c1cc(C(=O)OC)cc(C)c1NC(=O)c1cc(Cn2nnc(C(F)(F)F)n2)nn1-c1ncccc1Cl [Compound 2]			90%	100%	100%	90%	2.77	100%	
COC(=O)c1cc(C)c(NC(=O)c2cc(Cn3nnc(C(F)(F)F)n3)nn2-c2ncccc2Cl)c(C(=O)NC(C)(C)C)c1 [Compound 4]				100%	100%	100%	3.52	100%	
COC(=O)c1cc(C)c(NC(=O)c2cc(Cn3nnc(C(F)(F)F)n3)nn2-c2ncccc2Cl)c(C(N)=O)c1 [Compound 5]			90%	100%	100%		2.56	100%	
CC(=O)c1cc(C)c(NC(=O)c2cc(Cn3nnc(C(F)(F)F)n3)nn2-c2ncccc2Cl)c(C(=O)NC(C)(C)C)c1 [Compound 6]					100%	90%	2.87		100%
CNC(=O)c1cc(C(N)=S)cc(C)c1NC(=O)c1cc(Cn2nnc(C(F)(F)F)n2)nn1-c1ncccc1Cl [Compound 23]	100%		100%	100%			2.26	100%	
